Laboratory results published in DBAASP.
≈ marks a conversion by molar mass, not a printed value. Where “and” joins values, the source holds several entries; their conditions need not be identical. Equal entries are not always repeated.

Key:
Assay in all cases: ≥ marks a high value that may be exact or a test limit, other limits are often not marked, values filed in µg/mL are converted to µM
[1] = tested on: Escherichia coli K-12
[2] = tested on: Micrococcus luteus CCM 144
[3] = tested on: Staphylococcus aureus
[4] = tested on: Bacillus subtilis 168
[5] = tested on: Escherichia coli B
[6] = tested on: Pseudomonas aeruginosa
[7] = tested on: Candida albicans F7-39/IDE99
[8] = tested on: Streptococcus mutans
[9] = tested on: Enterococcus faecalis
[10] = tested on: Pseudomonas aeruginosa ATCC 27853
[11] = tested on: Acinetobacter baumannii
[12] = tested on: Enterococcus faecium
[13] = tested on: Escherichia coli BW25113

CC[C@H](C)[C@H](NC(=O)[C@H](CCCN=C(N)N)NC(=O)[C@H](CCC(N)=O)NC(=O)[C@@H](NC(=O)[C@@H](NC(=O)[C@H](CCC(N)=O)NC(=O)[C@H](C)N)[C@@H](C)CC)C(C)C)C(=O)N[C@@H](CCCCN)C(=O)N[C@@H](CC(=O)O)C(=O)N[C@@H](Cc1ccccc1)C(=O)N[C@@H](CC(C)C)C(=O)N[C@@H](CCCN=C(N)N)C(N)=O [AQIVQRIKDFLR]
MIC [1]: ≥ 240 µM

CC[C@H](C)[C@H](NC(=O)[C@H](CC(C)C)NC(=O)[C@H](CCCCN)NC(=O)[C@@H](NC(=O)[C@@H](NC(=O)[C@H](Cc1cnc[nH]1)NC(=O)[C@@H]1CCCN1C(=O)[C@H](CC(C)C)NC(=O)[C@@H](NC(=O)[C@H](CCCCN)NC(=O)[C@H](C)NC(=O)[C@H](CC(C)C)NC(=O)[C@H](CC(C)C)NC(=O)[C@H](CO)NC(=O)[C@H](C)NC(=O)[C@H](CCSC)NC(=O)CN)C(C)C)C(C)C)C(C)C)C(=O)N[C@@H](CCCCN)C(N)=O [GMASLLAKVLPHVVKLIK]
MIC [2]: 1.7 µM (≈ 3.26 µg/mL)
MIC [3]: 3.7 µM (≈ 7.09 µg/mL)
MIC [4]: 2.5 µM (≈ 4.79 µg/mL)
MIC [5]: 3.7 µM (≈ 7.09 µg/mL)
MIC [6]: 31.7 µM (≈ 60.8 µg/mL)
MIC [7]: 25 µM (≈ 47.9 µg/mL)

CC[C@H](C)[C@H](N)C(=O)NCC(=O)N[C@@H](CC(C)C)C(=O)N[C@@H](CCCN=C(N)N)C(=O)NCC(=O)N[C@@H](CC(C)C)C(=O)NCC(=O)N[C@@H](CCCN=C(N)N)C(=O)N[C@@H](CCCCN)C(=O)N[C@H](C(=O)N[C@@H](C)C(=O)N[C@@H](CC(C)C)C(=O)N[C@H](C(=O)N[C@@H](Cc1cnc[nH]1)C(=O)N[C@@H](CCCCN)C(=O)N[C@@H](CCCCN)C(=O)N[C@@H](Cc1ccc(O)cc1)C(=O)NCC(=O)O)[C@@H](C)CC)[C@@H](C)CC [IGLRGLGRKIALIHKKYG]
MIC [4]: ≥ 120 µM
MIC [1]: ≥ 120 µM

CC(C)C[C@H](NC(=O)[C@H](CC(C)C)NC(=O)[C@H](CCCCN)NC(=O)[C@H](CCCCN)NC(=O)[C@H](CC(C)C)NC(=O)[C@@H](N)CCCCN)C(=O)N[C@@H](CCCCN)C(=O)N[C@@H](CCCN=C(N)N)C(=O)N[C@@H](Cc1c[nH]c2ccccc12)C(=O)N[C@@H](CCCN=C(N)N)C(=O)N[C@@H](CCCN=C(N)N)C(=O)N[C@@H](Cc1c[nH]c2ccccc12)C(=O)N[C@@H](Cc1c[nH]c2ccccc12)C(=O)N[C@@H](CCCN=C(N)N)C(=O)O [KLKKLLKRWRRWWR]
MIC [8]: 3.9 µM (≈ 8 µg/mL)

CC[C@H](C)[C@H](NC(=O)[C@H](CCCCN)NC(=O)CNC(=O)[C@H](Cc1c[nH]c2ccccc12)NC(=O)[C@H](CC(N)=O)NC(=O)[C@@H](N)CCCCN)C(=O)N[C@@H](CC(C)C)C(=O)N[C@@H](CCCCN)C(=O)N[C@@H](Cc1cnc[nH]1)C(=O)N[C@H](C(=O)N[C@H](C(=O)N[C@@H](CCCCN)C(N)=O)[C@@H](C)CC)[C@@H](C)CC [KNWGKILKHIIK]
MIC [2]: 4.5 µM (≈ 6.65 µg/mL)
MIC [3]: 76.7 µM (≈ 113 µg/mL)
MIC [4]: 5.8 µM (≈ 8.57 µg/mL)
MIC [5]: 11.3 µM (≈ 16.7 µg/mL)
MIC [6]: 31.7 µM (≈ 46.8 µg/mL)
MIC [7]: 7.7 µM (≈ 11.4 µg/mL)

CC[C@H](C)[C@@H]1NC(=O)[C@H](CCCCN)NC(=O)[C@H](CCCCN)NC(=O)[C@@H]2CSSC[C@H](NC(=O)[C@H](C)NC(=O)[C@H](C(C)C)NC(=O)[C@@H](NC(=O)[C@@H](NC(=O)[C@@H](NC(=O)[C@H](CCCCN)NC(=O)[C@H](CCCCN)NC(=O)[C@@H](NC(=O)[C@H](CC(=O)O)NC(=O)[C@@H](N)CC(C)C)C(C)C)[C@@H](C)CC)[C@@H](C)CC)CSSC[C@@H](C(=O)N3CCC[C@H]3C(=O)N[C@@H](CCCCN)C(=O)O)NC1=O)C(=O)N[C@@H](CCCCN)C(=O)N[C@@H]([C@@H](C)CC)C(=O)N[C@@H](CCCN=C(N)N)C(=O)N1CCC[C@H]1C(=O)N[C@@H](CC(N)=O)C(=O)N1CCC[C@H]1C(=O)N[C@@H](C)C(=O)N2 [LDVKKIICVACKIRPNPACKKICPK]
MIC [2]: 0.8 µM (≈ 2.22 µg/mL)
MIC [3]: > 100 µM
MIC [4]: 1.5 µM (≈ 4.17 µg/mL)
MIC [5]: ≥ 32.5 µM
MIC [6]: > 100 µM
MIC [7]: 18.7 µM (≈ 52 µg/mL)

CC[C@H](C)[C@H](NC(=O)[C@H](C)NC(=O)[C@H](CCCCN)NC(=O)[C@H](CC(C)C)NC(=O)[C@H](CCCCN)NC(=O)[C@@H](N)CC(C)C)C(=O)N[C@@H](C)C(=O)N[C@@H](C)C(=O)N[C@@H](CC(C)C)C(=O)N[C@@H](C)C(=O)N[C@@H](CCCCN)C(=O)N[C@@H](CCCCN)C(=O)N[C@@H](CCCCN)C(=O)N[C@@H](Cc1c[nH]c2ccccc12)C(N)=O [LKLKAIAALAKKKW]
MIC [9]: 7.59 µM (≈ 12 µg/mL)
MIC [3]: 15.2 µM (≈ 24 µg/mL)
MIC [10]: 40.5 µM and > 20.2 µM
MIC [6]: 10.1 µM (≈ 16 µg/mL)
MIC [11]: 5.06 µM (≈ 8 µg/mL)

C[C@H](NC(=O)[C@H](CO)NC(=O)[C@H](C)NC(=O)[C@H](Cc1ccccc1)NC(=O)[C@H](Cc1c[nH]c2ccccc12)NC(=O)[C@H](Cc1c[nH]c2ccccc12)NC(=O)[C@H](Cc1c[nH]c2ccccc12)NC(=O)[C@H](CCCN=C(N)N)NC(=O)[C@H](CCCN=C(N)N)NC(=O)[C@@H](N)CCCN=C(N)N)C(=O)N[C@@H](CO)C(=O)N[C@@H](C)C(=O)N[C@@H](CCCN=C(N)N)C(=O)N[C@@H](CCCN=C(N)N)C(=O)N[C@@H](CCCN=C(N)N)C(=O)N[C@@H](Cc1c[nH]c2ccccc12)C(=O)N[C@@H](Cc1c[nH]c2ccccc12)C(=O)N[C@@H](Cc1c[nH]c2ccccc12)C(=O)N[C@@H](Cc1ccccc1)C(N)=O [RRRWWWFASASARRRWWWF]
MIC [8]: 11.6 µM (≈ 32 µg/mL)

CC(C)C[C@H](NC(=O)[C@H](CC(C)C)NC(=O)[C@H](CC(C)C)NC(=O)[C@H](CC(C)C)NC(=O)[C@H](CC(C)C)NC(=O)[C@H](CCCN=C(N)N)NC(=O)[C@H](Cc1c[nH]c2ccccc12)NC(=O)[C@@H](N)CCCN=C(N)N)C(=O)N[C@@H](CCCCN)C(=O)N[C@@H](CCCN=C(N)N)C(=O)N[C@@H](Cc1cnc[nH]1)C(=O)O [RWRLLLLLKRH]
MIC [9]: 23.5 µM (≈ 35.4 µg/mL)
MIC [12]: 23.5 µM (≈ 35.4 µg/mL)

CC[C@H](C)[C@H](NC(=O)[C@@H]1CCCN1C(=O)[C@H](CCCN=C(N)N)NC(=O)[C@H](CCCN=C(N)N)NC(=O)[C@H](CCCN=C(N)N)NC(=O)[C@H](Cc1c[nH]c2ccccc12)NC(=O)[C@@H]1CCCN1C(=O)[C@H](CCCN=C(N)N)NC(=O)[C@H](CCCN=C(N)N)NC(=O)[C@H](Cc1c[nH]c2ccccc12)NC(=O)[C@@H](N)CCCN=C(N)N)C(=O)N[C@@H](CCCN=C(N)N)C(=O)N1CCC[C@H]1C(=O)N1CCC[C@H]1C(=O)N[C@@H](Cc1ccccc1)C(=O)N[C@@H](Cc1ccc(O)cc1)C(=O)N[C@@H](CCCN=C(N)N)C(=O)O [RWRRPWRRRPIRPPFYR]
MIC [13]: 8 µM (≈ 19.6 µg/mL)

CC[C@H](C)[C@H](NC(=O)[C@@H]1CCCN1C(=O)[C@H](Cc1c[nH]c2ccccc12)NC(=O)[C@H](CCCN=C(N)N)NC(=O)[C@H](Cc1c[nH]c2ccccc12)NC(=O)[C@@H](N)CCCN=C(N)N)C(=O)N[C@@H](CCCN=C(N)N)C(=O)N[C@@H](CCCN=C(N)N)C(=O)N[C@@H](CCCN=C(N)N)C(=O)N1CCC[C@H]1C(=O)N[C@H](C(=O)N[C@@H](CCCN=C(N)N)C(=O)N1CCC[C@H]1C(=O)N1CCC[C@H]1C(=O)N[C@@H](Cc1ccccc1)C(=O)N[C@@H](Cc1c[nH]c2ccccc12)C(=O)N[C@@H](CCCN=C(N)N)C(=O)O)[C@@H](C)CC [RWRWPIRRRPIRPPFWR]
MIC [13]: 4 µM (≈ 9.73 µg/mL)

CC[C@H](C)[C@H](NC(=O)[C@H](CCCCN)NC(=O)[C@H](CC(C)C)NC(=O)[C@H](CC(C)C)NC(=O)[C@H](CCC(N)=O)NC(=O)[C@H](CCCCN)NC(=O)[C@@H](N)C(C)C)C(=O)N[C@@H](Cc1ccccc1)C(=O)N[C@@H](CC(N)=O)C(=O)N[C@@H](CCCN=C(N)N)C(=O)N[C@@H](Cc1ccccc1)C(N)=O [VKQLLKIFNRF]
MIC [8]: 31.8 µM (≈ 44.7 µg/mL)

CC[C@H](C)[C@H](NC(=O)[C@H](Cc1cnc[nH]1)NC(=O)[C@H](CC(C)C)NC(=O)[C@H](CC(C)C)NC(=O)[C@@H](NC(=O)[C@H](CCCCN)NC(=O)[C@@H](N)C(C)C)[C@@H](C)O)C(=O)N[C@@H](Cc1ccccc1)C(=O)N[C@@H](CCC(N)=O)C(=O)N[C@@H](CCCN=C(N)N)C(=O)N[C@@H](Cc1ccccc1)C(N)=O [VKTLLHIFQRF]
MIC [8]: ≥ 44.6 µM
